Data reported in patent US10610520B2, “Heterocyclic compound” (Takeda Pharmaceutical Company Limited, priority 2016, dated 2020).

The molecules below were run against T1, His-hMAGL (recombinant polyhistidine tagged human MAGL protein) (Homo sapiens, UniProt Q99685) (assay: Measurement of MAGL inhibitory activity (arachidonic acid production from 2-arachidonylglycerol, RapidFire-mass spectrometry)). Details: MAGL inhibitory rate, test compound 10 μM, 60 min preincubation, 2-arachidonylglycerol substrate.
T1 construct: made in house; host or cells: E. coli BL21(DE3)
T1 sequence (Q99685 1-303): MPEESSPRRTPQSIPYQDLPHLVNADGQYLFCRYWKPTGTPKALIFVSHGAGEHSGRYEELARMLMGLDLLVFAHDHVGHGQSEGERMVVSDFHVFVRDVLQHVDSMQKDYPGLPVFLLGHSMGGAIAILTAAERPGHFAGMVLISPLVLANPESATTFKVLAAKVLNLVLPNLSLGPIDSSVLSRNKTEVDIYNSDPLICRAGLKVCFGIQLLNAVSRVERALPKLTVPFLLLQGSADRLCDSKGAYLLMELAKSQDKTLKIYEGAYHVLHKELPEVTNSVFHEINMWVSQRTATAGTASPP
Assay type: biochemical
In short: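 Arachidonic acid formed was quantified by online solid-phase extraction and triple-quadrupole MS in negative SRM mode against a d8 internal standard. Reaction: recombinant His-hMAGL (7.5 ng/mL, pH 7.5 Tris buffer with Triton X-100 and BSA) plus 2-AG (5 μL of 150 μM stock) for 10 min at room temperature, quenched with 2% formic acid. Percent inhibition corrected for enzyme-free background.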

Row | inhibition at 10 µM | SMILES
1 | 98% | O=C1CCC2(CN(C(=O)c3ccc(-c4ccc(F)c(C(F)(F)F)c4)cc3)C2)N1 [Example 50, 2-((4′-fluoro-3′-(trifluoromethyl)biphenyl-4-yl)carbonyl)-2,5-diazaspiro[3.4]octan-6-one]
2 | 100% | CC(C)c1ccccc1-c1ccc2c(Cl)c(C(=O)N3CC4(CCC(=O)N4)C3)sc2c1 [Example 189, 2-((3-chloro-6-(2-isopropylphenyl)-1-benzothiophen-2-yl)carbonyl)-2,5-diazaspiro[3.4]octan-6-one]
3 | 98% | O=C1CCC2(CN(C(=O)c3ccc(-c4coc5ccccc45)cc3)C2)N1 [Example 66, 2-(4-(1-benzofuran-3-yl)benzoyl)-2,5-diazaspiro[3.4]octan-6-one]
4 | 100% | O=C1NC2(CO1)CN(C(=O)c1sc3cc(OC(F)(F)F)c(C(F)F)cc3c1Cl)C2 [Example 306, 2-((3-chloro-5-(difluoromethyl)-6-(trifluoromethoxy)-1-benzothiophen-2-yl)carbonyl)-7-oxa-2,5-diazaspiro[3.4]octan-6-one]
5 | 104% | O=C1CCC2(CN(C(=O)N3CCC(Cc4cc(C(F)(F)F)cc(C(F)(F)F)c4)CC3)C2)N1 [Example 108, 2-((4-(3,5-bis(trifluoromethyl)benzyl)piperidin-1-yl)carbonyl)-2,5-diazaspiro[3.4]octan-6-one]
6 | 98% | O=C1CCC2(CN(C(=O)c3ccc(-c4cccc(OCC5CC5)c4)cc3)C2)N1 [Example 171, 2-((3′-(cyclopropylmethoxy)biphenyl-4-yl)carbonyl)-2,5-diazaspiro[3.4]octan-6-one]
7 | 100% | O=C1NC2(CO1)CN(C(=O)c1sc3cc(-c4c(F)cccc4F)ccc3c1Cl)C2 [Example 345, 2-((3-chloro-6-(2,6-difluorophenyl)-1-benzothiophen-2-yl)carbonyl)-7-oxa-2,5-diazaspiro[3.4]octan-6-one]
8 | 101% | O=C1CCC2(CN(C(=O)c3ccc(-c4ccc(Cl)cc4Cl)cc3)C2)N1 [Example 84, 2-((2′,4′-dichlorobiphenyl-4-yl)carbonyl)-2,5-diazaspiro[3.4]octan-6-one]
9 | 100% | O=C1NC2(CO1)CN(C(=O)c1sc3ccccc3c1Cl)C2 [Example 288, 2-((3-chloro-1-benzothiophen-2-yl)carbonyl)-7-oxa-2,5-diazaspiro[3.4]octan-6-one]
10 | 100% | CC1(C2CCN(C(=O)N3CC4(CCC(=O)N4)C3)CC2)Cc2ccccc2O1 (stereo not drawn) [Example 2, 2-((4-(2-methyl-2,3-dihydro-1-benzofuran-2-yl)piperidin-1-yl)carbonyl)-2,5-diazaspiro[3.4]octan-6-one]
11 | 100% | O=C1NC2(CO1)CN(C(=O)[C@H]1C[C@@H](OCc3ccc(C(F)(F)F)cc3Cl)C1)C2 [Example 352, 2-((cis-3-((2-chloro-4-(trifluoromethyl)benzyl)oxy)cyclobutyl)carbonyl)-7-oxa-2,5-diazaspiro[3.4]octan-6-one]
12 | 87% | Cc1cc(C(=O)N2CC3(CCC(=O)N3)C2)ccc1-c1ccccc1 [Example 118, 2-((2-methylbiphenyl-4-yl)carbonyl)-2,5-diazaspiro[3.4]octan-6-one]
13 | 99% | O=C1CCC2(CN(C(=O)c3sc4cc(Br)ccc4c3Cl)C2)N1 [Example 35, 2-((6-bromo-3-chloro-1-benzothiophen-2-yl)carbonyl)-2,5-diazaspiro[3.4]octan-6-one]
14 | 101% | O=C1NC2(CO1)CN(C(=O)c1sc3c(Cl)c(OC(F)(F)F)ccc3c1Cl)C2 [Example 290, 2-((3,7-dichloro-6-(trifluoromethoxy)-1-benzothiophen-2-yl)carbonyl)-7-oxa-2,5-diazaspiro[3.4]octan-6-one]
15 | 103% | O=C1CCC2(CN(C(=O)N3CC(COc4cc(Br)c(C(F)(F)F)cc4F)C3)C2)N1 [Example 24, 2-((3-((5-bromo-2-fluoro-4-(trifluoromethyl)phenoxy)methyl)azetidin-1-yl)carbonyl)-2,5-diazaspiro[3.4]octan-6-one]
16 | 96% | Cc1ccc(-c2ccc3c(Cl)c(C(=O)N4CC5(CCC(=O)N5)C4)sc3c2)cc1F [Example 206, 2-((3-chloro-6-(3-fluoro-4-methylphenyl)-1-benzothiophen-2-yl)carbonyl)-2,5-diazaspiro[3.4]octan-6-one]

Row | inhibition at 10 µM | SMILES
17 | 100% | Cc1c(C(F)(F)F)ccc2c(Cl)c(C(=O)N3CCC4(COC(=O)N4)C3)sc12 (stereo not drawn) [Example 337, 7-((3-chloro-7-methyl-6-(trifluoromethyl)-1-benzothiophen-2-yl)carbonyl)-3-oxa-1,7-diazaspiro[4.4]nonan-2-one]
18 | 101% | O=C1NC2(CO1)CN(C(=O)c1sc3c(OC(F)(F)F)ccc(F)c3c1Cl)C2 [Example 267, 2-((3-chloro-4-fluoro-7-(trifluoromethoxy)-1-benzothiophen-2-yl)carbonyl)-7-oxa-2,5-diazaspiro[3.4]octan-6-one]
19 | 100% | Cc1c(OC(F)F)cc(F)c2c(Cl)c(C(=O)N3CC4(COC(=O)N4)C3)sc12 [Example 304, 2-((3-chloro-6-(difluoromethoxy)-4-fluoro-7-methyl-1-benzothiophen-2-yl)carbonyl)-7-oxa-2,5-diazaspiro[3.4]octan-6-one]
20 | 101% | Cc1cc(-c2ccc3c(Cl)c(C(=O)N4CC5(CCC(=O)N5)C4)sc3c2)c(C)s1 [Example 233, 2-((3-chloro-6-(2,5-dimethyl-3-thienyl)-1-benzothiophen-2-yl)carbonyl)-2,5-diazaspiro[3.4]octan-6-one]
21 | 101% | COC(=O)c1cccc(-c2ccc(CC3CCN(C(=O)N4CC5(CCC(=O)N5)C4)CC3)cc2)c1 [Example 110, methyl 4′-((1-((6-oxo-2,5-diazaspiro[3.4]oct-2-yl)carbonyl)piperidin-4-yl)methyl)biphenyl-3-carboxylate]
22 | 92% | Cc1ccc(C)c(-c2ccc(C(=O)N3CC4(CCC(=O)N4)C3)cc2)c1 [Example 90, 2-((2′,5′-dimethylbiphenyl-4-yl)carbonyl)-2,5-diazaspiro[3.4]octan-6-one]
23 | 100% | O=C1NC2(CO1)CN(C(=O)c1sc3c(Cl)ccc(OC(F)(F)F)c3c1Cl)C2 [Example 297, 2-((3,7-dichloro-4-(trifluoromethoxy)-1-benzothiophen-2-yl)carbonyl)-7-oxa-2,5-diazaspiro[3.4]octan-6-one]
24 | 96% | O=C1CCC2(CN(C(=O)c3ccc(-c4ccc(C(F)(F)F)cc4F)cc3)C2)N1 [Example 46, 2-((2′-fluoro-4′-(trifluoromethyl)biphenyl-4-yl)carbonyl)-2,5-diazaspiro[3.4]octan-6-one]
25 | 100% | O=C1CCC2(CN(C(=O)N3CC(COc4ccc5c(c4)CCCC5)C3)C2)N1 [Example 18, 2-((3-((5,6,7,8-tetrahydronaphthalen-2-yloxy)methyl)azetidin-1-yl)carbonyl)-2,5-diazaspiro[3.4]octan-6-one]
26 | 100% | O=C1CCC2(CN(C(=O)c3sc4cc(-c5c(F)cccc5F)ccc4c3Cl)C2)N1 [Example 213, 2-((3-chloro-6-(2,6-difluorophenyl)-1-benzothiophen-2-yl)carbonyl)-2,5-diazaspiro[3.4]octan-6-one]
27 | 100% | O=C1CCC2(CN(C(=O)N3CC(COc4ccc(C(F)(F)F)c(F)c4)C3)C2)N1 [Example 22, 2-((3-((3-fluoro-4-(trifluoromethyl)phenoxy)methyl)azetidin-1-yl)carbonyl)-2,5-diazaspiro[3.4]octan-6-one]
28 | 98% | O=C1CCC2(CN(C(=O)c3sc(-c4cccc(OCC5CC5)c4)cc3Cl)C2)N1 [Example 182, 2-((3-chloro-5-(3-(cyclopropylmethoxy)phenyl)-2-thienyl)carbonyl)-2,5-diazaspiro[3.4]octan-6-one]
29 | 101% | O=C1NC2(CO1)CN(C(=O)c1sc3ccc(OC(F)(F)F)cc3c1C(F)F)C2 [Example 300, 2-((3-(difluoromethyl)-5-(trifluoromethoxy)-1-benzothiophen-2-yl)carbonyl)-7-oxa-2,5-diazaspiro[3.4]octan-6-one]
30 | 98% | O=C1CCC2(CN(C(=O)N3CC(COc4ccc(C(F)(F)F)cc4Cl)C3)C2)N1 [Example 17, 2-((3-((2-chloro-4-(trifluoromethyl)phenoxy)methyl)azetidin-1-yl)carbonyl)-2,5-diazaspiro[3.4]octan-6-one]
31 | 100% | COc1cccc(-c2ccc3c(Cl)c(C(=O)N4CC5(CCC(=O)N5)C4)sc3c2)c1 [Example 194, 2-((3-chloro-6-(3-methoxyphenyl)-1-benzothiophen-2-yl)carbonyl)-2,5-diazaspiro[3.4]octan-6-one]
32 | 98% | O=C1CCC2(CN(C(=O)c3ccc(-c4cc(C(F)(F)F)cc(C(F)(F)F)c4)cc3)C2)N1 [Example 48, 2-((3′,5′-bis(trifluoromethyl)biphenyl-4-yl)carbonyl)-2,5-diazaspiro[3.4]octan-6-one]

Same assay, conditions: MAGL inhibitory rate, test compound 10 μM, 60 min preincubation, 2-arachidonylglycerol substrate; 10 µM

Row | % inhibition (10 μM) | SMILES
33 | 101% | O=C1NC2(CCN(C(=O)c3sc4cc(OC(F)(F)F)ccc4c3Cl)C2)CO1 (stereo not drawn) [Example 323, 7-((3-chloro-6-(trifluoromethoxy)-1-benzothiophen-2-yl)carbonyl)-3-oxa-1,7-diazaspiro[4.4]nonan-2-one]
